Experimental data taken from patent publication US20130289083A1, “IDO Inhibitors” (priority 2007, published 2013).
Like-named read-outs stand apart in the source and are kept apart here.

Columns and labels:
human IDO = human IDO (Homo sapiens, UniProt P14902); assay: Cell based IDO/kynurenine assay in IDO-293-T-Rex cells; conditions: kynurenine production, read-out: hIDO EC50
Experimental: 293-T-REx™ cells (Invitrogen) constitutively express a tet operator binding repressor protein and are maintained in DMEM, 10% FBS, 1× Penicillin+Streptomycin, 2 mM L-glutamine, 5 μg/mL blasticidin at 37° C. with a 5% CO2 in air atmosphere and typically split prior to confluency. Cells were passed by splitting the culture 1/10—by removing media by aspiration, washing 1× with PBS, incubating with 0.25% trypsin/EDTA until the cells detach, disbursing the cells in fresh growth media, and plating at 1/10 dilutions in fresh growth media. For long term cryopreservation, cells are detached from the plate as described above, collected by centrifugation, resuspended in freeze medium (growth medium, 10% DMSO), stored in 1.8 mL cyropreservation vials (˜2−5×10^6 cells per vial), in liquid nitrogen vapor storage tanks.
IDOl-expressing 293-T-Rex™ cell lines were generated by stable transfection of plasmid pcDNA-tetO-IDO expressing human IDO or murine IDO under the control of the doxycycline-inducible CMV-tet promoter. Transfected cells were selected in DBZ medium (DMEM, 10% FBS, 1× Penicillin+Streptomycin, 2 mM L-glutamine, 5 μg/mL blasticidin and 25 μg/ml Zeocin) at 37° C. with a 5% CO2 in air atmosphere. Individual clones were isolated by limiting dilution cloning from these populations.
[…]. The cells incubated in Neutral medium serve as negative control of the assay. The cells incubated in Induction medium and without inhibitor serve as the positive control of the assay. The incubation is carried out for 16 h at 37° C. in a cell culture incubator. 200 μL of medium are transferred to U-bottom polypropylene 96-well plates containing 25 μL of 30% TCA, incubated 30 minutes at 60° C. and centrifuged at 3400 g for 5 minutes. 150 μL of the clear supernatant is transferred to a polystyrene 96-well plate containing 50 μL of 4% (w/v) of p-dimethylaminobenzaldehyde in acetic acid, incubated for 10 min. Kynurenine concentration is determined by measuring the absorbance at 480 nm.
The conditions of the assay were as described in the examples.

[1] = target: purified human IDO protein (Homo sapiens, UniProt P14902); assay: Enzymatic IDO assay (kynurenine production, absorbance 480 nm); conditions: enzymatic activity
murine IDO = target: T1, murine IDO (Mus musculus, UniProt P28776); assay: Cell based IDO/kynurenine assay in 293-T-Rex cells expressing murine IDO; conditions: cells expressing murine IDO, read-out: mIDO EC50
T1 construct: expressed in transfected cells; host or cells: 293-T-REx cells (Invitrogen), doxycycline-inducible CMV-tet promoter
Experimental: Transfected cells were selected in DBZ medium (DMEM, 10% FBS, 1× Penicillin+Streptomycin, 2 mM L-glutamine, 5 μg/mL blasticidin and 25 μg/ml Zeocin) at 37° C. with a 5% CO2 in air atmosphere. Individual clones were isolated by limiting dilution cloning from these populations.
The cells incubated in Neutral medium serve as negative control of the assay. The cells incubated in Induction medium and without inhibitor serve as the positive control of the assay. The incubation is carried out for 16 h at 37° C. in a cell culture incubator. 200 μL of medium are transferred to U-bottom polypropylene 96-well plates containing 25 μL of 30% TCA, incubated 30 minutes at 60° C. and centrifuged at 3400 g for 5 minutes. 150 μL of the clear supernatant is transferred to a polystyrene 96-well plate containing 50 μL of 4% (w/v) of p-dimethylaminobenzaldehyde in acetic acid, incubated for 10 min. Kynurenine concentration is determined by measuring the absorbance at 480 nm.

[2] = Table 15, 293T cells expressing human IDO
[3] = hIDO IC50, Table 15, recombinant human IDO
[4] = Table 16, 293T cells expressing human IDO
[5] = hIDO IC50, Table 16, recombinant human IDO
[6] = 293T cell line stably expressing human IDO, values reported in ranges
[7] = read-out: hIDO IC50, recombinant human IDO, values reported in ranges
[8] = hIDO IC50, recombinant human IDO, values reported in ranges

Chain of human IDO (P14902 whole entry): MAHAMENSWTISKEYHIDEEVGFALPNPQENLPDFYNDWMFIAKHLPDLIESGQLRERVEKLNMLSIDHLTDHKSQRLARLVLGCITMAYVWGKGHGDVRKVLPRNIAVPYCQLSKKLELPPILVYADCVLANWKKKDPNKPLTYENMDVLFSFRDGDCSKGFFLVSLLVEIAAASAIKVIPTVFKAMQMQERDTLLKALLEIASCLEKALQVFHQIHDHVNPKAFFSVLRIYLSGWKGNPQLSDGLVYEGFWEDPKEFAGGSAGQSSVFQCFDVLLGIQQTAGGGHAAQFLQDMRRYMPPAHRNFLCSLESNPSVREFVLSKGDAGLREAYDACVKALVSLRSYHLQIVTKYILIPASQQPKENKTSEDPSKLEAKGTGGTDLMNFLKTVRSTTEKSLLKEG
T1 sequence (P28776 whole entry): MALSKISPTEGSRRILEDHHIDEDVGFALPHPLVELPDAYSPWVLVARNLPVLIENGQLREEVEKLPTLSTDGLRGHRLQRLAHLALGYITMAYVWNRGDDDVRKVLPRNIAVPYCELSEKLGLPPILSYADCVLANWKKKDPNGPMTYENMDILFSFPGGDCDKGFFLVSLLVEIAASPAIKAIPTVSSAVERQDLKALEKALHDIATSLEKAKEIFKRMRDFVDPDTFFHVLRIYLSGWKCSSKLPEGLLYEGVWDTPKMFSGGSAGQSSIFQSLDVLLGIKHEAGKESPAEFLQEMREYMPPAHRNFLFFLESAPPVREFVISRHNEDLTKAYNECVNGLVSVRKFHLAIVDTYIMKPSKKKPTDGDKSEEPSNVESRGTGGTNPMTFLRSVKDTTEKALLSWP
Chain of purified human IDO protein (P14902 whole entry P110S/E119G): as the sequence (P14902 whole entry) above, with P110S, E119G counted along it

Row | Compound | EC50 (human IDO; [6]) [µM] | IC50 [1, 8] [µM] | also measured
1 | NOCc1cccc(N)c1 [compound 1824, 3-(aminooxymethyl)aniline] |  |  | EC50 (human IDO; [2]): < 10 µM; IC50 [1, 3]: 10 to 100 µM; EC50 (murine IDO; Table 15): 10 to 100 µM
2 | NOCc1ccc(F)cc1 [compound 774, O-(4-fluorobenzyl)hydroxylamine] |  |  | EC50 (human IDO; [4]): < 10 µM; IC50 [1, 5]: < 10 µM; EC50 (murine IDO; Table 16): < 10 µM
3 | NOCc1cc(Cl)ccc1-c1ccc(C(F)(F)F)cc1 [compound 1917, O-((4-chloro-4′-(trifluoromethyl)biphenyl-2-yl)methyl)hydroxylamine] |  |  | EC50 (human IDO; [2]): < 10 µM; IC50 [1, 3]: < 10 µM; EC50 (murine IDO; Table 15): 10 to 100 µM
4 | COC(=O)c1ccc(CON)cc1 [compound 1684, methyl 4-(aminooxymethyl)benzoate] |  |  | EC50 (human IDO; [4]): < 10 µM; IC50 [1, 5]: < 10 µM; EC50 (murine IDO; Table 16): 10 to 100 µM
5 | NOCc1ccccc1Nc1ccccc1 [compound 1871, 2-(aminooxymethyl)-N-phenylaniline] |  |  | EC50 (human IDO; [2]): < 10 µM; IC50 [1, 3]: < 10 µM; EC50 (murine IDO; Table 15): 10 to 100 µM
6 | NOCc1ccccc1 [compound 1666, O-benzylhydroxylamine] |  |  | EC50 (human IDO; [4]): < 10 µM; IC50 [1, 5]: < 10 µM; EC50 (murine IDO; Table 16): < 10 µM
7 | NOCc1ccc2c(c1)OCO2 [compound 1744, O-(benzo[d][1,3]dioxol-5-ylmethyl)hydroxylamine] |  |  | EC50 (human IDO; [2]): < 10 µM; IC50 [1, 3]: < 10 µM; EC50 (murine IDO; Table 15): 10 to 100 µM
8 | NOCc1cccc(-c2ccncc2)c1 [compound 1888, O-(3-(pyridin-4-yl)benzyl)hydroxylamine] |  |  | EC50 (human IDO; [2]): < 10 µM; IC50 [1, 3]: 10 to 100 µM; EC50 (murine IDO; Table 15): 100 to 1000 µM
9 | NOC(CCc1ccccc1)c1ccccc1 (stereo not shown) [compound 1924, O-(1,3-diphenylpropyl)hydroxylamine] |  |  | EC50 (human IDO; [2]): < 10 µM; IC50 [1, 3]: < 10 µM; EC50 (murine IDO; Table 15): 10 to 100 µM
10 | NOC(CCC1CCCCC1)c1ccccc1 (stereo not shown) [compound 1938, O-(3-cyclohexyl-1-phenylpropyl)hydroxylamine] |  |  | EC50 (human IDO; [2]): < 10 µM; IC50 [1, 3]: < 10 µM
11 | CSC(=S)NCCc1c[nH]c2c(Cl)cc(Cl)cc12 [compound 42] | 100 to 1000 |  | IC50 [1, 7]: 100 to 1000 µM
12 | S=C(NCCc1c[nH]c2ccccc12)SCCc1ccccc1Cl [compound 21, 2-Chlorophenethyl 2-(1H-indol-3-yl)ethylcarbamodithioate] | 100 to 1000 | 100 to 1000 | 
13 | O=C(O)Cc1cccc2sccc12 [compound 307, 2-(benzo[b]thiophen-4-yl)acetic acid] | 1000 to 10000 | < 20 | 
14 | CSC(=S)NCCc1c[nH]c2ccc(Cl)cc12 [compound 32] | 20 to 100 |  | IC50 [1, 7]: 100 to 1000 µM
15 | Nc1ccccc1NC(=O)CCCc1c[nH]c2ccccc12 [compound 588, N-(2-aminophenyl)-4-(1H-indol-3-yl)butanamide] | 100 to 1000 | 100 to 1000 | 
16 | CSC(=S)NCCc1ccc(C)cc1C [compound 66, Methyl 2,4-dimethylphenethylcarbamodithioate] | 100 to 1000 | 100 to 1000 | 
17 | CC(=O)N1C(=O)/C(=C2/SC(=S)NC2=O)c2ccccc21 [compound 149] | 20 to 100 | 100 to 1000 | 
18 | O=C(O)CC(=O)c1ccc(F)cc1 [compound 313, 3-(4-fluorophenyl)-3-oxopropanoic acid] | 100 to 1000 | 100 to 1000 | 

Row | Compound | EC50 (human IDO; [6]) [µM] | IC50 [1, 8] [µM] | also measured
19 | O=C1C(CSC(=S)Nc2ccccc2)NC(=S)N1c1ccccc1 (stereo not shown) [compound 151, (5-oxo-1-phenyl-2-thioxoimidazolidin-4-yl)methyl phenylcarbamodithioate] | 100 to 1000 | 100 to 1000 | 
20 | O=C1CSC(=S)N1Cc1c[nH]c2ccccc12 [compound 78, 3-((1H-indol-3-yl)methyl)-2-thioxothiazolidin-4-one] | 100 to 1000 | 100 to 1000 | 
21 | Nc1ccc2[nH]cc(C(=O)O)c2c1 [compound 352, 5-amino-1H-indole-3-carboxylic acid] | 1000 to 10000 | 100 to 1000 | 
22 | Fc1ccccc1CCSC(=S)NCCc1c[nH]c2ccccc12 [compound 12, 2-fluorophenethyl 2-(1H-indol-3-yl)ethylcarbamodithioate] | 100 to 1000 | 100 to 1000 | 
23 | O=C1CSC(=S)N1Cc1ccc2ccccc2c1 [compound 830, 3-(Naphthalen-2-ylmethyl)-2-thioxothiazolidin-4-one] | 20 to 100 | 20 to 100 | 
24 | COc1ccc(CCSC(=S)NCCc2c[nH]c3ccccc23)cc1 [compound 2, 4-Methoxyphenethyl 2-(1H-indol-3-yl)ethylcarbamodithioate] | 100 to 1000 | 100 to 1000 | 
25 | NC(CSC(=S)NCCCc1ccccc1)C(=O)O (stereo not shown) [compound 140, 2-amino-3-(3-phenylpropyl-carbamo-thioylthio)propanoic acid] | 20 to 100 | 100 to 1000 | 
26 | CSC(=S)NCCc1cccc(Cl)c1 [compound 14] | 100 to 1000 |  | IC50 [1, 7]: 100 to 1000 µM
27 | O=C1CSC(=S)N1Cc1ccccc1 [compound 79, 3-Benzyl-2-thioxothiazolidin-4-one] | < 20 | 20 to 100 | 
28 | C=CCOc1ccc(CC)c(OCC=C)c1 [compound 252, 2,4-bis(allyloxy)-1-ethylbenzene] | 20 to 100 | 100 to 1000 | 
29 | CC(CC(=O)O)c1cccc([N+](=O)[O-])c1 (stereo not shown) [compound 282, 3-(3-nitrophenyl)butanoic acid] | 1000 to 10000 | 100 to 1000 | 
30 | O=C(Cc1ccc2ccccc2c1)NO [compound 827, N-hydroxy-2-(naphthalen-2-yl)acetamide] | 20 to 100 | 100 to 1000 | 
31 | CSC(=S)NCCc1c[nH]c2cc(C(F)(F)F)cc(C(F)(F)F)c12 [compound 44] | 1000 to 10000 |  | IC50 [1, 7]: 100 to 1000 µM
32 | S=C(NCCc1c[nH]c2ccccc12)SCCc1ccccc1 [compound 1, Phenethyl 2-(1H-indol-3-yl)ethylcarbamodithioate] | 100 to 1000 | 100 to 1000 | 
33 | CN(C)c1ccc(-c2ccc(Cl)cc2CON)cc1 [compound 1934, 2′-(aminooxymethyl)-4′-chloro-N,N-dimethylbiphenyl-4-amine] |  |  | EC50 (human IDO; [2]): < 10 µM; IC50 [1, 3]: < 10 µM
34 | Fc1ccc(CCSC(=S)NCCc2c[nH]c3ccccc23)cc1 [compound 3, 4-Fluorophenethyl 2-(1H-indol-3-yl)ethylcarbamodithioate] | 100 to 1000 | 100 to 1000 | 
35 | S=C(NCCc1c[nH]c2ccccc12)SCc1cc2c(cc1Br)OCO2 [compound 65, (6-Bromobenzo[d][1,3]dioxol-5-yl)methyl 2-(1H-indol-3-yl)ethylcarbamodithioate] | 20 to 100 | 20 to 100 | 
